# Experimental data taken from patent US11279735B2, “Cyclic peptide antibiotics” (priority 2017, dated 2022).
# *1 amine or outer side, *2 acyl side, *3 side chain or, on linkers, in order; H or OH if unused. Where a SMILES comes first, the peptide text is derived from it. [ ]: non-standard residue; d: D form. X23 = CCCCCCCCCC[C@@H](OCCN[*:1])[C@@H](C)C(=O)[*:2]; aIle = CC[C@@H](C)[C@H](N)C(=O)O; aThr = C[C@H](O)[C@H](N)C(=O)O; NMeL = CN[C@@H](CC(C)C)C(=O)O; Dap = NC[C@H](N)C(=O)O
# Tested on: Escherichia coli (E. coli) strain CFT073 ATCC 700928
# Assay type: cell-based
# Details: ATCC 700928, 22 h
# Procedure: In vitro antimicrobial activity of each compound was determined by measuring minimal inhibitor concentrations (MICs) using the broth micro-dilution technique as approved by the Clinical and Laboratory Standards Institute (CLSI) (Methods for Dilution Antimicrobial Susceptibility Tests for Bacteria that Grow Aerobically; Approved Standard—Eighth Edition. CLSI document M07-A8. Wayne, Pa.: Clinical and Laboratroy Standards; 2009). Antibacterial activity was measure against Escherichia coli (E. coli) strain CFT073 ATCC 700928, which is a clinically relevant Gram-negative strain. Cells were inoculated onto plates of Mueller Hinton Agar and grown at 37° C. for 16-18 hours. Inocula suspensions were prepared by scraping cells into 1 mL of testing media (Mueller Hinton II cation adjusted Broth supplemented with 0.002% v/v Tween-80) and diluting to a final OD600 nm of 0.01.
# Test compounds were prepared in DMSO at a concentration of 100 uM The compounds were tested under several different dilution formats and the data are reported in Tables 6, 7 and 8. In protocol 1, the compound stocks were diluted into testing media at a concentration of 64 μg/ml and serial 2-fold dilutions were made in the same media, in 96-well U bottom microtiter dishes, for a total of 10 compound concentrations. In protocol 2, the compound stocks were diluted into testing media at a concentration of 4 μg/mL and serial 2-fold dilutions were made in the same media, in 96-well U bottom microtiter dishes, for a total of 10 compound concentrations. In protocol 3, compound stocks were diluted into testing media at a concentration of 0.5 μg/mL, with serial 2-fold dilutions conducted as described above. In protocol 4, compound stocks were diluted into testing media at a concentration of 0.13 μg/mL, with serial 2-fold dilutions conducted as described above. Inocula suspensions were added to the 2-fold serial dilutions of test compounds to a final density of OD OD600 nm of 0.0005 and incubated at 35° C. for 22 hours.
row,Structure (SMILES),MIC [µM]
1,"CCCCCCCCCC[C@H]1OC(=O)CNC(=O)[C@H]([C@H](C)O)NC(=O)[C@H](CO)NC(=O)[C@H]([C@@H](C)CC)NC(=O)[C@H](CCC)N(C)C(=O)[C@@H]1C [Example 32, (6S,9S,12S,15S,18R,19R)-19-decyl-6-[(1S)-1-hydroxyethyl]-9-(hydroxymethyl)-16,18-dimethyl-12-[(1S)-1-methylpropyl]-15-propyl-1-oxa-4,7,10,13,16-pentazacyclononadecane-2,5,8,11,14,17-hexone]",9.4
2,"CCCCCC[C@H]1OC(=O)CNC(=O)[C@H]([C@H](C)O)NC(=O)[C@H](CN)NC(=O)[C@H]([C@H](C)CC)NC(=O)[C@H](CC(C)C)N(C)C(=O)[C@@H]1C [Example 34, (6S,9S,12S,15S,18R,19R)-9-(aminomethyl)-19-hexyl-6-[(1S)-1-hydroxyethyl]-15-isobutyl-16,18-dimethyl-12-[(1R)-1-methylpropyl]-1-oxa-4,7,10,13,16-pentazacyclononadecane-2,5,8,11,14,17-hexone]",9.4
3,"CCCCCCCCCC[C@H]1OC(=O)CNC(=O)[C@H](CO)NC(=O)[C@H](CO)NC(=O)[C@H](C(C)C)NC(=O)[C@H](CC(C)C)N(C)C(=O)[C@@H]1C [Example 39, (6S,9S,12S,15S,18R,19R)-19-decyl-6,9-bis(hydroxymethyl)-15-isobutyl-12-isopropyl-16,18-dimethyl-1-oxa-4,7,10,13,16-pentazacyclononadecane-2,5,8,11,14,17-hexone]",25
4,"CCCCCCCCCC[C@H]1OC(=O)CNC(=O)[C@H](CO)NC(=O)[C@H](CO)NC(=O)[C@H](CC2CCC2)NC(=O)[C@H](CC(C)C)N(C)C(=O)[C@@H]1C [Example 41, (6S,9S,12S,15S,18R,19R)-12-(cyclobutylmethyl)-19-decyl-6,9-bis(hydroxymethyl)-15-isobutyl-16,18-dimethyl-1-oxa-4,7,10,13,16-pentazacyclononadecane-2,5,8,11,14,17-hexone]",25
5,"CCCC(CCC)C[C@H]1OC(=O)CNC(=O)[C@H]([C@H](C)O)NC(=O)[C@H](CO)NC(=O)[C@H]([C@H](C)CC)NC(=O)[C@H](CC(C)C)N(C)C(=O)[C@@H]1C [Example 42, (6S,9S,12S,15S,18R,19R)-6-[(1S)-1-hydroxyethyl]-9-(hydroxymethyl)-15-isobutyl-16,18-dimethyl-12-[(1R)-1-methylpropyl]-19-(2-propylpentyl)-1-oxa-4,7,10,13,16-pentazacyclononadecane-2,5,8,11,14,17-hexone]",50
6,"CCCCCCCCCC[C@H]1OC(=O)CNC(=O)[C@H](CO)NC(=O)[C@H](CO)NC(=O)[C@H](C(CC)CC)NC(=O)[C@H](CC(C)C)N(C)C(=O)[C@@H]1C [Example 43, (6S,9S,12S,15S,18R,19R)-19-decyl-12-(1-ethylpropyl)-6,9-bis(hydroxymethyl)-15-isobutyl-16,18-dimethyl-1-oxa-4,7,10,13,16-pentazacyclononadecane-2,5,8,11,14,17-hexone]",13
7,"CC[C@H](C)[C@@H]1NC(=O)[C@H](CC(C)C)N(C)C(=O)[C@H](C)[C@@H](CCCCC(C)(C)C)OC(=O)CNC(=O)[C@H]([C@H](C)O)NC(=O)[C@H](CO)NC1=O [Example 44, (6S,9S,12S,15S,18R,19R)-19-(5,5-dimethylhexyl)-6-[(1S)-1-hydroxyethyl]-9-(hydroxymethyl)-15-isobutyl-16,18-dimethyl-12-[(1S)-1-methylpropyl]-1-oxa-4,7,10,13,16-pentazacyclononadecane-2,5,8,11,14,17-hexone]",25
8,"CCCCCCCCCC[C@H]1OC(=O)CNC(=O)[C@H]([C@H](C)O)NC(=O)[C@H](CN)NC(=O)[C@H](C2CCCC2)NC(=O)[C@H](CC(C)C)N(C)C(=O)[C@@H]1C [Example 45, (6S,9S,12S,15S,18R,19R)-9-(aminomethyl)-12-cyclopentyl-19-decyl-6-[(1S)-1-hydroxyethyl]-15-isobutyl-16,18-dimethyl-1-oxa-4,7,10,13,16-pentazacyclononadecane-2,5,8,11,14,17-hexone]",25
9,"CCCCCCCCCC[C@H]1OC(=O)CNC(=O)[C@H]([C@H](C)O)NC(=O)[C@H](CN)NC(=O)[C@H](CCc2ccccc2)NC(=O)[C@H](CC(C)C)N(C)C(=O)[C@@H]1C [Example 46, (6S,9S,12S,15S,18R,19R)-9-(aminomethyl)-19-decyl-6-[(1S)-1-hydroxyethyl]-15-isobutyl-16,18-dimethyl-12-(2-phenylethyl)-1-oxa-4,7,10,13,16-pentazacyclononadecane-2,5,8,11,14,17-hexone]",25
10,"CCCCCCCCCC[C@H]1OC(=O)CNC(=O)[C@H](COCCO)NC(=O)[C@H](CO)NC(=O)[C@H]([C@@H](C)CC)NC(=O)[C@H](CC(C)C)N(C)C(=O)[C@@H]1C [Example 48, (6S,9S,12S,15S,18R,19R)-19-decyl-6-(2-hydroxyethoxymethyl)-9-(hydroxymethyl)-15-isobutyl-16,18-dimethyl-12-[(1S)-1-methylpropyl]-1-oxa-4,7,10,13,16-pentazacyclononadecane-2,5,8,11,14,17-hexone]",50

# Other lines, results leading:
row,MIC [µM],Structure (SMILES)
1,13,"CCCCCCCCCC[C@H]1OC(=O)[C@H](C)NC(=O)[C@H]([C@H](C)O)NC(=O)[C@H](CO)NC(=O)[C@H]([C@@H](C)CC)NC(=O)[C@H](CC(C)C)N(C)C(=O)[C@@H]1C [Example 33, (3S,6S,9S,12S,15S,18R,19R)-19-decyl-6-[(1S)-1-hydroxyethyl]-9-(hydroxymethyl)-15-isobutyl-3,16,18-trimethyl-12-[(1S)-1-methylpropyl]-1-oxa-4,7,10,13,16-pentazacyclononadecane-2,5,8,11,14,17-hexone]"
2,6.3,"CCCCCCCCCCCC[C@H]1OC(=O)CNC(=O)[C@H]([C@H](C)O)NC(=O)[C@H](CO)NC(=O)[C@H]([C@@H](C)CC)NC(=O)[C@H](CC(C)C)N(C)C(=O)[C@@H]1C [Example 35, (6S,9S,12S,15S,18R,19R)-19-dodecyl-6-[(1S)-1-hydroxyethyl]-9-(hydroxymethyl)-15-isobutyl-16,18-dimethyl-12-[(1S)-1-methylpropyl]-1-oxa-4,7,10,13,16-pentazacyclononadecane-2,5,8,11,14,17-hexone]"
3,25,"CCCCCCCCCC[C@H]1OC(=O)CNC(=O)[C@H](CO)NC(=O)[C@H](CO)NC(=O)[C@H]([C@@H](C)CC)NC(=O)[C@H](CCC)N(C)C(=O)[C@@H]1C [Example 36, (6S,9S,12S,15S,18R,19R)-19-decyl-6,9-bis(hydroxymethyl)-16,18-dimethyl-12-[(1S)-1-methylpropyl]-15-propyl-1-oxa-4,7,10,13,16-pentazacyclononadecane-2,5,8,11,14,17-hexone]"
4,25,"CCCCCCCCCC[C@H]1OC(=O)CNC(=O)[C@H](CNC(N)=O)NC(=O)[C@H](CO)NC(=O)[C@H]([C@@H](C)CC)NC(=O)[C@H](CC(C)C)N(C)C(=O)[C@@H]1C [Example 37, [(6S,9S,12S,15S,18R,19R)-19-decyl-9-(hydroxymethyl)-15-isobutyl-16,18-dimethyl-12-[(1S)-1-methylpropyl]-2,5,8,11,14,17-hexaoxo-1-oxa-4,7,10,13,16-pentazacyclononadec-6-yl]methylurea]"
5,50,"CCCCCCCCCC[C@H]1OC(=O)CNC(=O)[C@H](C2CCNCC2)NC(=O)[C@H](CO)NC(=O)[C@H]([C@@H](C)CC)NC(=O)[C@H](CC(C)C)N(C)C(=O)[C@@H]1C [Example 38, (6S,9S,12S,15S,18R,19R)-19-decyl-9-(hydroxymethyl)-15-isobutyl-16,18-dimethyl-12-[(1S)-1-methylpropyl]-6-(4-piperidyl)-1-oxa-4,7,10,13,16-pentazacyclononadecane-2,5,8,11,14,17-hexone]"
6,50,"CCCCCCCCCC[C@H]1OC(=O)CNC(=O)[C@H]([C@H](C)O)NC(=O)[C@H](CO)NC(=O)[C@H](CCC)NC(=O)[C@H](CC(C)C)N(C)C(=O)[C@@H]1C [Example 40, (6S,9S,12S,15S,18R,19R)-19-decyl-6-((S)-1-hydroxyethyl)-9-(hydroxymethyl)-15-isobutyl-16,18-dimethyl-12-propyl-1-oxa-4,7,10,13,16-pentaazacyclononadecane-2,5,8,11,14,17-hexaone]"
7,3.1,"CCCCCCCCCC[C@H]1OCCNC(=O)[C@H]([C@H](C)O)NC(=O)[C@H](CN)NC(=O)[C@H]([C@H](C)CC)NC(=O)[C@H](CC(C)C)N(C)C(=O)[C@@H]1C [Example 47, (6S,9S,12S,15S,18R,19R)-9-(aminomethyl)-19-decyl-6-[(1S)-1-hydroxyethyl]-15-isobutyl-16,18-dimethyl-12-[(1R)-1-methylpropyl]-1-oxa-4,7,10,13,16-pentazacyclononadecane-5,8,11,14,17-pentone] (cyclo([Dap][aThr][X23][NMeL][aIle]))"
